# Test results: ChEMBL document CHEMBL1201862, “PubChem BioAssay data set” (2004)
# The source made the active and inactive calls.
# How the values were obtained:
# [1] = off-target signal loss in HeLa-CEM21 co-culture – HeLa F-luc CTL cells, cherry-picked, counter-screen for HIV-1 Env fusion inhibitor project, dose response (AID 652040); format: functional, cell-based;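 note: potency for signal decrease marking cytotoxic or nonspecific inhibition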
# [2] = inhibitors of clade B AD8 Env fusion, dose response, cell-based, cherry-pick (AID 652062); format: functional;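 note: luciferase signal from cell-cell fusion driven by HIV-1 clade B AD8 Env; potency is for inhibitors of fusion seen as a drop in luminescence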
# [3] = inhibitors of HIV Env-driven cell fusion, dose response, cherry-pick (AID 652057); format: functional, cell-based
# [4] = ZM109 Env clade C HIV-1 fusion inhibitors, dose response, HeLa effector, CEM target cells, luciferase, cherry-pick (AID 652058); format: functional, cell-based
# [5] = target: T1, Short transient receptor potential channel 4 (Mus musculus, UniProt Q9QUQ5); experiment: mouse TRPC4 channel inhibitors, dose response, cell-based, HEK293 TRPC4/mu-opioid, Fluo-4 calcium (AID 434942); format: functional;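 note: potency of inhibitors blocking the TRPC4 calcium response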
# T1 sequence (Q9QUQ5 whole entry): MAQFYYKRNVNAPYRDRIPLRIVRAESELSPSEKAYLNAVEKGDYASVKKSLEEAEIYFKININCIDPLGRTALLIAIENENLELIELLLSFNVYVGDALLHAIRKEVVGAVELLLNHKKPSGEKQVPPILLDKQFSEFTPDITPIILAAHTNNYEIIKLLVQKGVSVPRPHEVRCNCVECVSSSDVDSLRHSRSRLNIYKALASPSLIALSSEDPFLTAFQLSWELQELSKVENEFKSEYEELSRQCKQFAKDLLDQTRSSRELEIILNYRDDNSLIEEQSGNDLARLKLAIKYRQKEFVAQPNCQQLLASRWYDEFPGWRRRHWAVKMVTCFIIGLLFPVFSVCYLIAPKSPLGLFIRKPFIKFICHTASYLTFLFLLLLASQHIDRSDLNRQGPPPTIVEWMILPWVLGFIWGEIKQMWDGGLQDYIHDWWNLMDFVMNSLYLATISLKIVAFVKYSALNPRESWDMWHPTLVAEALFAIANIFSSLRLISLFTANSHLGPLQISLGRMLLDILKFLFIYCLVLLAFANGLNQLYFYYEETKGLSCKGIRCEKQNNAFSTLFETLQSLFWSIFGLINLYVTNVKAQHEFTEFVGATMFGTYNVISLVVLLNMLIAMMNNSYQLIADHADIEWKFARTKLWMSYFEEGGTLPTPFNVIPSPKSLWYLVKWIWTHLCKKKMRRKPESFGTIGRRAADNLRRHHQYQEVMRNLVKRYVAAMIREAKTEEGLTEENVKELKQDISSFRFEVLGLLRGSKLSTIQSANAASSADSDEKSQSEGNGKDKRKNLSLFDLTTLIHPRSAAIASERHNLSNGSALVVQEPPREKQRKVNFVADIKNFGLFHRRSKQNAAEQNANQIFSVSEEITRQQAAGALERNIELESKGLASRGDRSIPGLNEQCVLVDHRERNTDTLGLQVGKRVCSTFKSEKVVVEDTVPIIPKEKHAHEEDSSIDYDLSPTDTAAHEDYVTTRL
# Aminopeptidase N = target: T2, Aminopeptidase N (Plasmodium falciparum FcB1/Columbia, UniProt O96935); experiment: P. falciparum M1AAP inhibitors, biochemical, fluorogenic H-Leu-NHMec substrate, 1536-well (AID 1445); set-up: species or system Plasmodium falciparum 3D7, 3D7
# T2 sequence (O96935 whole entry): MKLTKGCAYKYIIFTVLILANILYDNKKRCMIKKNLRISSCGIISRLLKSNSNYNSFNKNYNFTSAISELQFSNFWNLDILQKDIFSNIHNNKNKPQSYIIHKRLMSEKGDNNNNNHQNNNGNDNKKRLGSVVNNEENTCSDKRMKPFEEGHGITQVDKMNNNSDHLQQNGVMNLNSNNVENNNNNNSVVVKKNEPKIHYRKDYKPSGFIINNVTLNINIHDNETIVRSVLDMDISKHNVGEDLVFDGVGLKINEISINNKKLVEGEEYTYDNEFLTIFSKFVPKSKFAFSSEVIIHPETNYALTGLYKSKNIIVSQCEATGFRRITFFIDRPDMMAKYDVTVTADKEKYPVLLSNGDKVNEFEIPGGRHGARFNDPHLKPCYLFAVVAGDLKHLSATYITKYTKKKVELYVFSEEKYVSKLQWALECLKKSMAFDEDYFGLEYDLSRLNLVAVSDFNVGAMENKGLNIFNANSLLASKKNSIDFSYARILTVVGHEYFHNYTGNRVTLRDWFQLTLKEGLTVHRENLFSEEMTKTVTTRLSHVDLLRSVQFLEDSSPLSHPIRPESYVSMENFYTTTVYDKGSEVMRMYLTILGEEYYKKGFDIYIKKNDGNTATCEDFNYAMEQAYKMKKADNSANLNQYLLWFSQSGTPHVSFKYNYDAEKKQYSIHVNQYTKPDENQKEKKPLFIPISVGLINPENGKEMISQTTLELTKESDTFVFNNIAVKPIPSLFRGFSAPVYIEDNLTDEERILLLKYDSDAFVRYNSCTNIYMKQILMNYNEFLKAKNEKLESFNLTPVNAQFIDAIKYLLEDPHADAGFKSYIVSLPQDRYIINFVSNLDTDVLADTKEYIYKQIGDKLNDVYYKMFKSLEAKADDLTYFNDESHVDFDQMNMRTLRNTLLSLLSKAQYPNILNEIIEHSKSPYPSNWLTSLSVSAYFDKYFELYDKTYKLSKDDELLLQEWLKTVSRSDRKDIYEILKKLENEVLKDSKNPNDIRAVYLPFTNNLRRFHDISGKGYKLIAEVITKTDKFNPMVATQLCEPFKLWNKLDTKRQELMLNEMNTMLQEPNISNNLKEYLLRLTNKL
# Coagulation factor XII = target: T3, Coagulation factor XII (Homo sapiens, UniProt P00748); format: functional;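 note: activated factor XIIa alpha cleaving a fluorogenic AMC peptide substrate; inhibitor potency from loss of enzyme activity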
# T3 sequence (P00748 whole entry): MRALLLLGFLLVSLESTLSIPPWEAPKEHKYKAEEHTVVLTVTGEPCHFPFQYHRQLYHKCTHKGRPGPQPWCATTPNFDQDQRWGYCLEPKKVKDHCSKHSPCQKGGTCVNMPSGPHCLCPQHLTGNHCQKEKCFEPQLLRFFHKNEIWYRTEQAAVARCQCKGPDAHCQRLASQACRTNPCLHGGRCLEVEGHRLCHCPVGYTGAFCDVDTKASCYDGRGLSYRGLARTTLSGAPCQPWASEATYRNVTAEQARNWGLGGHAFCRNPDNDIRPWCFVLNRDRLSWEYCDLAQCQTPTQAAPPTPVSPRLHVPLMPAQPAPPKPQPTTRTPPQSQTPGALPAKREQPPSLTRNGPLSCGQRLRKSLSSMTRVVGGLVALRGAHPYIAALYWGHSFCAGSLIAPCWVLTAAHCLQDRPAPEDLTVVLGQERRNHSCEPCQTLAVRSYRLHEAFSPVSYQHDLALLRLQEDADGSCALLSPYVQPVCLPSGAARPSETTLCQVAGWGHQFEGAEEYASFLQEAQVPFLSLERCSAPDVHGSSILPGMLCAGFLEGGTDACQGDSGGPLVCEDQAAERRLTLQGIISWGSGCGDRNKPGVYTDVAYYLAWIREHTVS
# BJ [6] = experiment: cytotoxicity toward BJ-TERT-LT-ST fibroblasts, dose response, cell-based, RAS-independent, luminescence (AID 1935); format: functional; conditions: Homo sapiens;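 note: BJ fibroblasts immortalized with TERT plus LT and ST oncogenes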
# [7] = cytotoxicity toward DRD oncogenic fibroblasts, dose response, cell-based, non-viral oncogenic, luminescence (AID 1934); format: functional; conditions: Homo sapiens
# BJ [8] = experiment: cytotoxicity toward BJ-TERT fibroblasts, dose response, cell-based, RAS-independent, luminescence (AID 1933); format: functional; conditions: Homo sapiens
# BJ [9] = experiment: cells; format: functional, cell-based; conditions: Homo sapiens
# Protein skinhead-1 = target: T4, Protein skinhead-1 (Caenorhabditis elegans, UniProt P34707); format: functional
# T4 sequence (P34707 whole entry): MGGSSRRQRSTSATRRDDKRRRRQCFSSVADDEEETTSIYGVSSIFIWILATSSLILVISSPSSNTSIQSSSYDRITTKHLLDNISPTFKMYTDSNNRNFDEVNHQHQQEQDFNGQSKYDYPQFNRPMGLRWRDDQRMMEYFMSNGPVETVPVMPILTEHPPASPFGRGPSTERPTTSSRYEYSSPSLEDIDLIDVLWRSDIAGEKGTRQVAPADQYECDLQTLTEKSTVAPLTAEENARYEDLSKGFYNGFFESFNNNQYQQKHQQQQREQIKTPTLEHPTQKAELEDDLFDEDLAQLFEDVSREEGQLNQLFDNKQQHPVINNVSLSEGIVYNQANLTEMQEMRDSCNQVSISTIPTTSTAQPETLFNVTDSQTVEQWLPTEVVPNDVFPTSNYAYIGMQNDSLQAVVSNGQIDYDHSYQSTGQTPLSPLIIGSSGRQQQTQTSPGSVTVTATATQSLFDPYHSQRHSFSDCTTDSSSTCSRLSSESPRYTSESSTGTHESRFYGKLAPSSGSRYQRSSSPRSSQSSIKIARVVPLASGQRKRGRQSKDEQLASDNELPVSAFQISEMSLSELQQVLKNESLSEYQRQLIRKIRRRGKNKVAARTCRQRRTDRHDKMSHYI
# [10] = target: Peroxisome proliferator-activated receptor gamma/Nuclear receptor coactivator 3 (Homo sapiens, UniProt P37231); format: functional;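 note: agonist potency for raising coactivator recruitment to the receptor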
# [11] = target: Peroxisome proliferator-activated receptor gamma/Nuclear receptor coactivator 1 (Homo sapiens, UniProt P37231); format: functional;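 note: agonist potency as compounds enhance coactivator SRC-1 recruitment to PPARgamma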
# [12] = target: Peroxisome proliferator-activated receptor gamma/Nuclear receptor coactivator 2 (Homo sapiens, UniProt P37231); format: functional;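 note: agonist potency for raising coactivator recruitment to the receptor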
# H4 = experiment: Luminescence Cell-Based Dose Response HTS to Identify Activators of 5'UTR Stem-Loop Driven Prion Protein mRNA Translation in H4 Neuroglioblastoma Cells. [Related pubchem assays: 1829 (Project Summary), 1814 (Primary HTS)]; format: functional; conditions: Homo sapiens
# [13] = Luminescence Cell-Based Dose Response HTS to Identify Activators of Luciferase Translation or Activity in H4 […] Cells. [Related pubchem assays: 1829 (Project Summary), 1814 (Primary HTS)]; format: functional
# Cytochrome P450 3A4 = Cytochrome P450 3A4 (Homo sapiens, UniProt P08684);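 note: CYP3A4 tested as one member of a cytochrome P450 panel screen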
# Chain of Cytochrome P450 3A4 (P08684 whole entry): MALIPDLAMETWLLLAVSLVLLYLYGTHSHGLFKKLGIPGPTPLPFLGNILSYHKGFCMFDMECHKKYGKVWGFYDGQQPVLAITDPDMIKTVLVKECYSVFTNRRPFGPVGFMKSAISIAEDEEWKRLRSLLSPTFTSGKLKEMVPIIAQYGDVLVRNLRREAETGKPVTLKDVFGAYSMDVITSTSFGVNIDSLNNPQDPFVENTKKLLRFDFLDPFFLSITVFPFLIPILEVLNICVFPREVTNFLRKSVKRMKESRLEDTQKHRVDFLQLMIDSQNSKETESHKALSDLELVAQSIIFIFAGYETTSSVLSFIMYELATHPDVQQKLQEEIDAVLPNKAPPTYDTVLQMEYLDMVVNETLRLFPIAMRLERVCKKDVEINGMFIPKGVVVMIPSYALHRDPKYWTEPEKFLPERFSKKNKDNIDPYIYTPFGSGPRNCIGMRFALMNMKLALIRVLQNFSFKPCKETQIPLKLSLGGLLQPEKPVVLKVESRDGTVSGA
# Chain of Peroxisome proliferator-activated receptor gamma/Nuclear receptor coactivator 3 (P37231 whole entry): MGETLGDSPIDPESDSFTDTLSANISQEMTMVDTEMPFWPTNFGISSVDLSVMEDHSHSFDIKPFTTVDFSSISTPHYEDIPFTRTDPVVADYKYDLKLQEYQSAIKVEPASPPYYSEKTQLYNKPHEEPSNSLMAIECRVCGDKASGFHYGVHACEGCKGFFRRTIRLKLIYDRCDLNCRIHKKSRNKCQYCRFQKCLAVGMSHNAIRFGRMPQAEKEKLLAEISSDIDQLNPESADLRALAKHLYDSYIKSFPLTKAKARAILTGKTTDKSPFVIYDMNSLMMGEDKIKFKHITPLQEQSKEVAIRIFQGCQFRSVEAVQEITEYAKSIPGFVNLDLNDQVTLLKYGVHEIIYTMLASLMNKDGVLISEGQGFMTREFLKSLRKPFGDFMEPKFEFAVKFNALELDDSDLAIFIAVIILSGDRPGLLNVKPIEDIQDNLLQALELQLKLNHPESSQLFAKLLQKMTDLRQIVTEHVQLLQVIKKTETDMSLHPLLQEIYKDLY
# Chain of Peroxisome proliferator-activated receptor gamma/Nuclear receptor coactivator 3 (Q9Y6Q9 whole entry, further chain): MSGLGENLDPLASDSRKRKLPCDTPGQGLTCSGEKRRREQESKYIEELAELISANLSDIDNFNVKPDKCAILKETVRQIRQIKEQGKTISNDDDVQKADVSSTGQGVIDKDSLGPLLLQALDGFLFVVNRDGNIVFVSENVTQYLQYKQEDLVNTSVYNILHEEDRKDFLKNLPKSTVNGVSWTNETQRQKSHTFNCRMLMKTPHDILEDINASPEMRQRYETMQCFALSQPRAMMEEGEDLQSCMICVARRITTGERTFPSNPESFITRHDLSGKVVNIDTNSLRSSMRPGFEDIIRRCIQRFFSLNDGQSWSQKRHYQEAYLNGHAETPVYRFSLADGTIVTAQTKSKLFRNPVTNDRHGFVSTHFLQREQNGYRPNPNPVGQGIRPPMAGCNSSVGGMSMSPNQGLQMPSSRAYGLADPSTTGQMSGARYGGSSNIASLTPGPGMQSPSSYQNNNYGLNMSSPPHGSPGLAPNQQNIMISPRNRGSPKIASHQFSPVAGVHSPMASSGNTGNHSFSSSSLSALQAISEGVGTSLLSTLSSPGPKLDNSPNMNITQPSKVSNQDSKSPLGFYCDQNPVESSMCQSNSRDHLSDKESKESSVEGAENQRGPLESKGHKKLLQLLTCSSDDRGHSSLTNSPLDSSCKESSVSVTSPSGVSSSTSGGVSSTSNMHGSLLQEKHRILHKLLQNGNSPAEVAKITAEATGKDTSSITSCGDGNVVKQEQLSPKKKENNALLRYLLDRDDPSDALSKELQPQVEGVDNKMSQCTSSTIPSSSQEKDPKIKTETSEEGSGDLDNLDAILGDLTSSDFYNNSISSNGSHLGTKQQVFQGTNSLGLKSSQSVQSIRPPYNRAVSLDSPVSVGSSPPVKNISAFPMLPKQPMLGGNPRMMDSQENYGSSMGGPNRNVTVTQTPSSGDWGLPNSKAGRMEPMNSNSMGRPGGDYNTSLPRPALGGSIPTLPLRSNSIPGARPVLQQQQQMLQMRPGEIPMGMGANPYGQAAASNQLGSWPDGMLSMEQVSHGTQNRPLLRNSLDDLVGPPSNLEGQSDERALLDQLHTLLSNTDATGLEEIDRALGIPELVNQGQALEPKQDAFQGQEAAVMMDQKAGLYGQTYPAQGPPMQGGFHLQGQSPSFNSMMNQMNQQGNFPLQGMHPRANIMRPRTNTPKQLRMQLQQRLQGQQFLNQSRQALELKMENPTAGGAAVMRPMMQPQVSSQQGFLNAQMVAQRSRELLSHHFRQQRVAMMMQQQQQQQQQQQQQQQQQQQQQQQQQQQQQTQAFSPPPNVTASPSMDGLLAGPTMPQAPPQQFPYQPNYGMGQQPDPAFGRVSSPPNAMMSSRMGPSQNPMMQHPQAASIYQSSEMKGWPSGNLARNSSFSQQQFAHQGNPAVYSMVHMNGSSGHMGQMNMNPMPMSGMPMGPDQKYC
# Chain of Peroxisome proliferator-activated receptor gamma/Nuclear receptor coactivator 2 (P37231 whole entry): as the sequence (P37231 whole entry) above
# Chain of Peroxisome proliferator-activated receptor gamma/Nuclear receptor coactivator 2 (Q15596 whole entry, further chain): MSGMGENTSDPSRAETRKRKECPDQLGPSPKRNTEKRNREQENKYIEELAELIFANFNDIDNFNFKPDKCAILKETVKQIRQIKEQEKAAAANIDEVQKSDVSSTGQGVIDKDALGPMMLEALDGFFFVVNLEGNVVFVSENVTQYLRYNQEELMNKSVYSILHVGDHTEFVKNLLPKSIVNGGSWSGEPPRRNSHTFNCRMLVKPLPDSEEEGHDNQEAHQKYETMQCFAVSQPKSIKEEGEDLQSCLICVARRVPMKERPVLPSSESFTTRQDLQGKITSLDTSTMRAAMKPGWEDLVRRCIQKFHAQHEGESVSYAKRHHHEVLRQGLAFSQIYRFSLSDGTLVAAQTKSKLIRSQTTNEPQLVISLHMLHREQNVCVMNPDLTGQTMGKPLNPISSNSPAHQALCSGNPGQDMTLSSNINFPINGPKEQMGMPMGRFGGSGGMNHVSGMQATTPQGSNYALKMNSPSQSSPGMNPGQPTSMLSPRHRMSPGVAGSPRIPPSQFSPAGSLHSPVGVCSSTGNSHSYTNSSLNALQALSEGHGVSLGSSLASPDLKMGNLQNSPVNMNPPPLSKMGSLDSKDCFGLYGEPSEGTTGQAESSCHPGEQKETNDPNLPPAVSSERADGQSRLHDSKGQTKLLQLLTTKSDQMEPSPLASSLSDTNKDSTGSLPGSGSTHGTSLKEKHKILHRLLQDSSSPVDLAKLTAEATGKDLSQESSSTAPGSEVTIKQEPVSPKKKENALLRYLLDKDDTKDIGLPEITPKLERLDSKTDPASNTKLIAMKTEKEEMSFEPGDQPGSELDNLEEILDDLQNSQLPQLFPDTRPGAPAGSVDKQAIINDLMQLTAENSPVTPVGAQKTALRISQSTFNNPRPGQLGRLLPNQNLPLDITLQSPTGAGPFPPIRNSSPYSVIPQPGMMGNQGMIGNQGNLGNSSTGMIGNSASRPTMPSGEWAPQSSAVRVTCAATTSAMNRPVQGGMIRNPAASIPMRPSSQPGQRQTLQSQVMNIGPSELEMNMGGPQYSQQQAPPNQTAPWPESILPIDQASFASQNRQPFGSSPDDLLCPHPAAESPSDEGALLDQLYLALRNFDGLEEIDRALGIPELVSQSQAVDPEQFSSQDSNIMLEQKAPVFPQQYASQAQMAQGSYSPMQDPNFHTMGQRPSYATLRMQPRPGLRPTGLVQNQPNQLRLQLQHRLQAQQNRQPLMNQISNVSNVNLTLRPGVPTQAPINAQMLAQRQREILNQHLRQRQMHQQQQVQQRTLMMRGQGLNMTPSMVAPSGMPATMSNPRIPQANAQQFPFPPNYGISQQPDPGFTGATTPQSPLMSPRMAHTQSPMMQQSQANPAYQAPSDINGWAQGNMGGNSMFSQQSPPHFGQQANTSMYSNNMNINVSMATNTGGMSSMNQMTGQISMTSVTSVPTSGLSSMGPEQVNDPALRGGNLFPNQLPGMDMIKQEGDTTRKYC
structure (smiles),measurement,setting,value
CC(C)(C)n1nnnc1C(c1cccs1)N(Cc1cccnc1)Cc1ccco1 (stereo not given),AC50,[1],15.2 µM (active)
same,AC50,[2],7.08 µM (active)
same,AC50,[3],3.99 µM (active)
same,AC50,[4],4.74 µM (active)
COc1cccc2cc(C(N)=O)/c(=N\NC(=O)c3ccccc3)oc12,EC50,[5],0.188 µM (active)
Cc1ccc(-n2cccn2)c(CN2CCCC(C(=O)c3ccc4c(c3)OCO4)C2)c1 (stereo not given),EC50,[5],7.5 µM (active)
COc1cc(/C=N/NC(=O)[C@H](Cc2c[nH]c3ccccc23)NC(=O)OCC(C)C)cc([N+](=O)[O-])c1O,IC50,Aminopeptidase N,12.2 µM (active)
CCCC(=O)NNC(=O)c1ccoc1C,IC50,Coagulation factor XII,> 50 µM (inactive)
O=C(COC(=O)C1CC1)Nc1nc(-c2ccc(F)c(F)c2)cs1,EC50,[5],2.99 µM (active)
COc1ccc(C(=O)c2cc([N+](=O)[O-])ccc2N2CCCC2)cc1,EC50,BJ [6],3.87 µM (inconclusive)
same,EC50,[7],3.06 µM (active)
same,EC50,BJ [8],13 µM (active)
same,EC50,BJ [9],58.2 µM (active)
COc1cccc(C2=NN(C(=O)c3ccco3)C(c3ccco3)C2)c1 (stereo not given),EC50,[5],1.88 µM (active)
Clc1ccc(CSc2ccc(-c3cccnc3)nn2)cc1,IC50,Protein skinhead-1,83.9 µM (inactive)
COc1ccc(Cl)cc1N=C(S)NNC(=O)C1(C)CC1(Cl)Cl (stereo not given),IC50,Coagulation factor XII,> 50 µM (inactive)
CCOC(=O)c1s/c(=N\C(=O)c2ccc(OC(C)C)cc2)n(C)c1C,EC50,[10],20.3 µM (not active)
same,EC50,[11],18.3 µM (not active)
same,EC50,[12],16.2 µM (not active)
FCCCOc1ccc(-c2ccnc(-c3ccccc3)n2)cc1,IC50,Protein skinhead-1,52.3 µM (inactive)
Nc1nc(C2CCCN2S(=O)(=O)c2ccc(Cl)cc2)cs1 (stereo not given),EC50,[10],> 79.4 µM (not active)
same,EC50,[11],> 79.4 µM (not active)
same,EC50,[12],> 79.4 µM (not active)
O=C(c1ccccc1)c1cc([N+](=O)[O-])ccc1N1CCCC1,EC50,BJ [6],> 150 µM (not active)
same,EC50,[7],> 150 µM (not active)
same,EC50,BJ [8],> 150 µM (not active)
same,EC50,BJ [9],> 150 µM (not active)
Fc1cccc(CSc2ccc(-c3ccco3)nn2)c1,EC50,H4,8.43 µM (active)
same,IC50,Protein skinhead-1,> 100 µM (inactive)
same,EC50,[13],49.2 µM (active)
CCc1nnc(NC(=O)CSc2ncnc3c2oc2ccccc23)s1,EC50,[10],23.5 µM (not active)
same,EC50,[11],22.6 µM (not active)
same,EC50,[12],18.3 µM (not active)
Cc1nc2ccccc2n1CCOc1ccc(F)cc1,EC50,[5],0.376 µM (active)
COc1ccc(C2CC(=O)c3c([nH]c(C(=O)OC(C)C)c3C)C2)cc1OC (stereo not given),EC50,[10],> 79.4 µM (not active)
same,EC50,[11],> 79.4 µM (not active)
same,EC50,[12],> 79.4 µM (not active)
C[C@H]1CN([C@@H](C)CO)C(=O)c2cc(NS(=O)(=O)c3ccc(F)cc3)ccc2O[C@H]1CN(C)S(=O)(=O)c1ccc(F)cc1,AC50,[4],42.4 µM (active)
O=C1c2cccnc2C(Nc2ccc(S(=O)(=O)N3CCCCC3)cc2)N1Cc1ccccc1 (stereo not given),AC50,[1],58.9 µM (active)
same,AC50,[3],7.23 µM (active)
COC(=O)c1cccc(NC(=O)CSc2nnc[nH]2)c1,IC50,Coagulation factor XII,> 50 µM (inactive)
CCOCCCn1cnc2c(c1=O)c1nc3ccccc3nc1n2-c1ccccc1,AC50,Cytochrome P450 3A4,20 µM (inconclusive)
same,IC50,Coagulation factor XII,> 50 µM (inactive)
CC(=O)Nc1cc(NC(C)=O)cc(C(=O)OCC(=O)N2CC(C)OC(C)C2)c1 (stereo not given),IC50,Protein skinhead-1,> 100 µM (inactive)
O=C(Nc1ccc(F)cc1)C1CCCN1S(=O)(=O)c1ccc(Br)cc1 (stereo not given),AC50,[1],14.5 µM (active)
same,AC50,[2],16.3 µM (active)
same,AC50,[3],7.75 µM (active)
same,AC50,[4],6.89 µM (active)
CCc1nnc(NC(=O)CCC(=O)N2CCN(CCOc3ccc(C)cc3)CC2)s1,IC50,Coagulation factor XII,> 50 µM (inactive)
COc1ccc(CN(Cc2ccc(OC)cc2)C(=O)c2cccs2)cc1,IC50,Coagulation factor XII,> 50 µM (inactive)
